Assay results as given in publication PMC8222254, “Self-assembly of an anion receptor with metal-dependent kinase inhibition and potent in vitro anti-cancer properties” (Nature Communications, 2021).
Several values for one entry are separate records, joined by “and”; a condition that tells them apart may be missing. Equal entries are not always repeated.

What was measured:
HCT116 p53+/+ [1] = assay: TSQ cellular localisation / uptake study; format: cell-based, human; details: 25μM, 1 hour
Experimental: (§1) 48 h following cell seeding in Lumox chamber slides (8-well, Sarstedt), cells (ARPE-19 and HCT116 p53^+/+ were treated for 1 h at 37 °C with 25 μM of [L2Zn3]^6+ or DMSO solvent control before removal and washout three times using complete phenol-red free media. 25 μM TSQ (Enzo Life Sciences) was then added for 30 min for detection of cellular zinc before its washout (three washes) and analyses by confocal microscopy (Zeiss LSM880).

ARPE-19 [2] = assay: TSQ cellular localisation / uptake study; format: cell-based, human; details: ARPE-19, 25μM, 1 hour
Experimental: as §1

[3] = target: recombinant human AMPK (pT172 AMPKα1, pS108 AMPKβ1) (Homo sapiens, UniProt Q9Y478); assay: In vitro phosphatase assay with recombinant kinase, immunoblotting; format: biochemical; details: concentration titration 0-50µM
Chain of recombinant human AMPK (pT172 AMPKα1, pS108 AMPKβ1) (Homo sapiens, UniProt Q9Y478) (Q9Y478 whole entry, canonical isoform): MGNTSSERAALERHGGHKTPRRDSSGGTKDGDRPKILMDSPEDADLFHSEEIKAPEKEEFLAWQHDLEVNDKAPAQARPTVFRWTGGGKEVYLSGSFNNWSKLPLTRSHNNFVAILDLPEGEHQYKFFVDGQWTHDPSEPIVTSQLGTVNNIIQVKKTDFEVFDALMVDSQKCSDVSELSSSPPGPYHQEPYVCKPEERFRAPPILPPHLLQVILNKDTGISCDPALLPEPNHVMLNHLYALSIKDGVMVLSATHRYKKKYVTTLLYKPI
Chain of recombinant human AMPK (pT172 AMPKα1, pS108 AMPKβ1) (Homo sapiens, UniProt Q9Y478) (P54646 whole entry partner, canonical isoform): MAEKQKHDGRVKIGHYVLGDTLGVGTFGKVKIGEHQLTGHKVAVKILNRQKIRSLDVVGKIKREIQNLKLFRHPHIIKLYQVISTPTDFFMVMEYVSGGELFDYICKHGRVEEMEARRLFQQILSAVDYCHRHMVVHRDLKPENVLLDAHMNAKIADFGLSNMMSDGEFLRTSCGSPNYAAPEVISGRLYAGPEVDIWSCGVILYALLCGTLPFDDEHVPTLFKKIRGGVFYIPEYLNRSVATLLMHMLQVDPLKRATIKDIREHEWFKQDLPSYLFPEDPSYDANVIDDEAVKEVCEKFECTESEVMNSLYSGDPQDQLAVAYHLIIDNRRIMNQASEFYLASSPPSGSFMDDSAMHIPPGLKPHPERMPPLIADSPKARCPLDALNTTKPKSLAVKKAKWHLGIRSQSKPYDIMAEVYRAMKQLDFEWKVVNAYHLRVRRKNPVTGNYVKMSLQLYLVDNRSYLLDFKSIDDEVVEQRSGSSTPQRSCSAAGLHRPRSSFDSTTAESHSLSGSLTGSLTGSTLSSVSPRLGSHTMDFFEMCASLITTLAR
Chain of recombinant human AMPK (pT172 AMPKα1, pS108 AMPKβ1) (Homo sapiens, UniProt Q9Y478) (P54619 whole entry partner, canonical isoform): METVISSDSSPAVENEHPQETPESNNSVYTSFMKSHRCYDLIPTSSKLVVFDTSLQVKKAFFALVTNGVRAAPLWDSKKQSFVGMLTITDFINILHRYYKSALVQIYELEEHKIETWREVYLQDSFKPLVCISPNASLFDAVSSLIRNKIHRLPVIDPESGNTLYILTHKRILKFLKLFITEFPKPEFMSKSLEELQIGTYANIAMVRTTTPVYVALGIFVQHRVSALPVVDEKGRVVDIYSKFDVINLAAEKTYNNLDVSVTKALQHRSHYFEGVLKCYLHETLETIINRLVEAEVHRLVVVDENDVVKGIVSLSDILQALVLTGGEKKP
Experimental: (§2) 800 ng of purified recombinant human AMPK (α1β2γ1) or Src kinase (MRC PPU, International Centre for Kinase Profiling, University of Dundee) was incubated with 50 μM [L2Cu3]^6+, [L2Zn3]^6+, or vehicle control in 50 mM Tris HCl pH 7.5 containing 50 μM ATP for 4 h at 37 °C. For [L2Zn3]^6+ time course and concentration titration experiments, 800 ng recombinant human AMPK was used (α1β2γ1 AMPK isoform for pT172 AMPKα1 detection or α2β1γ1 AMPK isoform for pS108 AMPKβ1 detection). For evaluation of ATP dependency and influence of AMP, 50 µM ATP was replaced with 50 µM AMP or omitted. Reactions were stopped by addition of Laemmli’s buffer (Biorad) to 1x and heating at 95 °C for 5 min before analysis by SDS PAGE and immunoblotting for detection of specific phosphorylated amino acids of AMPK and Src proteins.
(§3) Protein lysates and recombinant proteins were resolved on 15% SDS polyacrylamide gels. Proteins were electroblotted onto nitrocellulose membrane by wet transfer in 1xTris Glycine buffer (Biorad) at 35 mA overnight at room temperature. After blocking of membranes, these were incubated with primary antibody overnight at 4 °C before addition of rabbit or mouse secondary antibody (HRP-conjugated; 1:5000, Dako P0448 or P0260) for 1 h at room temperature and development of blots by enhanced chemiluminescence. Primary antibodies were: anti-Src (total) (Cell Signalling Technology #2123 1:1000), anti-phosphorylated Src (Y527) (Cell Signalling Technology #21055 1:1000), anti-phosphorylated Src (Y416) (Cell Signalling Technology #69435 1:1000), anti-AMPKα (total) (Cell Signalling Technology #2532 1:1000), anti-phosphorylated AMPKα (T172) (Cell Signalling Technology #2535 1:1000), anti-AMPKβ1 (total) (Cell Signalling Technology #4150 1:1000), anti-phosphorylated AMPKβ1 (S108) (abcam ab156890 1:500), anti-phospho-Tyr (pan) (Cell Signalling Technology #8954 1:2000), anti-p53 (Santa Cruz, DO-1 clone, 1:1000,), anti-phosphorylated LDH-A (Y10) (Cell Signalling Technology #8176 1:1000), anti-LDH-A/B (total) (abcam ab134187 1:5000), anti-β-actin (Merck MAB1501, 1:40,000). Quantification of signals was performed by densitometry using Image J software. Uncropped and unprocessed scans are provided in the Source Data file.

Src = target: T1, Src (Homo sapiens, UniProt P12931); assay: as above; format: biochemical; details: 50 μM complex, 4 h, with ATP
T1 construct: His tag (N); host or cells: baculovirus expression system
T1 sequence (P12931 whole entry): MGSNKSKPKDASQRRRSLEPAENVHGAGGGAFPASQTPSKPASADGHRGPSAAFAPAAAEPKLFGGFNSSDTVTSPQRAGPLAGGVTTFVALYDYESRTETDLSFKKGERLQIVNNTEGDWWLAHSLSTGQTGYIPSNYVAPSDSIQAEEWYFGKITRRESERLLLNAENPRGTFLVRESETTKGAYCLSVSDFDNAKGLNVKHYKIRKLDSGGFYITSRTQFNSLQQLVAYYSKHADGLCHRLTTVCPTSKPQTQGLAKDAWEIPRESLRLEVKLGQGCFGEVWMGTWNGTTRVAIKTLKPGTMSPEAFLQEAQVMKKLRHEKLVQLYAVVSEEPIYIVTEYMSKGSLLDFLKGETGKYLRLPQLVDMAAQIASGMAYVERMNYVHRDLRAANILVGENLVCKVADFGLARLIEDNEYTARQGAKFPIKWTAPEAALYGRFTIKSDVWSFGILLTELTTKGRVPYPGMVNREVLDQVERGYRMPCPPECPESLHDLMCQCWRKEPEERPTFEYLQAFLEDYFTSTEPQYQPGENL
Experimental: as §2, §3

[4] = test system: recombinant human AMPK (pT172 AMPKα1, pS108 AMPKβ1); assay: as above; format: biochemical; details: 50µM
Experimental: as §2, §3

HCT116 p53+/+ [5] = assay: Immunoblotting of whole cell protein lysates; format: cell-based, human
Experimental: (§4) ARPE-19 and HCT116 p53^+/+ cells were seeded at a density of 3 × 10^5 (ARPE-19) or 5 × 10^5 (HCT116 p53^+/+) in T25 flasks. 24 h after seeding, cells were treated with 10 µM of [L2Cu3]^6+, [L2Zn3]^6+, or vehicle control for 4 h (Fig. 8b) or 5 μM of [L2Cu3]^6+, [L2Zn3]^6+, or vehicle control for 40 h (Fig. 10). Cells were then harvested and lysed in RIPA buffer (Sigma) with the protein concentration of lysates determined by the BCA assay.
as §3

ARPE-19 [6] = assay: Immunoblotting of whole cell protein lysates; format: cell-based, human; details: for levels of p53: ARPE19, 5 µM, 40 h
Experimental: as §4, §3

[7] = target: T2, recombinant human AMPK (α1β2γ1) (Homo sapiens, UniProt Q13131); assay: Substrate competition assay (ADP-Glo Kinase Assay); format: biochemical
T2 construct: purchased Promega
T2 sequence (Q13131 whole entry): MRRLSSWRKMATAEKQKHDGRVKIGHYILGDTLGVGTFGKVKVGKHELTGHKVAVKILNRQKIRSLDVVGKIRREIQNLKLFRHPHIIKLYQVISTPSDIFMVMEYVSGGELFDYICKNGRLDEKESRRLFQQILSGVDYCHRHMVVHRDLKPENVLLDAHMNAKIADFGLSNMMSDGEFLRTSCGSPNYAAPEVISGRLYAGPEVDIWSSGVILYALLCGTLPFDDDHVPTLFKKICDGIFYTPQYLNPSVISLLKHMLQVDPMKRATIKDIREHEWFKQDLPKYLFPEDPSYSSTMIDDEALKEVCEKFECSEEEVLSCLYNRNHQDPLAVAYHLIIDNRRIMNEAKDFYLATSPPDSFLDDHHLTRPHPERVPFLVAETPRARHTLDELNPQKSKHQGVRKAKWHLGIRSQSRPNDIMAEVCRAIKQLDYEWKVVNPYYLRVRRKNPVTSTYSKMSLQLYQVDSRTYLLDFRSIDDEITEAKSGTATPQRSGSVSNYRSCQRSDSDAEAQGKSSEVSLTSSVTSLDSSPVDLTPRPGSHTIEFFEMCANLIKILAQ
T2 sequence (O43741 whole entry partner): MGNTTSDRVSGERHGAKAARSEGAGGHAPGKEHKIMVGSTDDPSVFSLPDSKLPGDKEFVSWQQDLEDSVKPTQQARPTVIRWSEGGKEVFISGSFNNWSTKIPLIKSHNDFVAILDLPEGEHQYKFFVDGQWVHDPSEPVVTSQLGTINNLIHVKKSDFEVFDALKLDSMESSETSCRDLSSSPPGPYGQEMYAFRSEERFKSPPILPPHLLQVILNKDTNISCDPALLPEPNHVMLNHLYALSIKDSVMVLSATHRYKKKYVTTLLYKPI
T2 sequence (P54619 whole entry partner): as the sequence (P54619 whole entry partner, canonical isoform) above
Experimental: ATP competition kinase assays were performed by the MRC Protein Phosphorylation and Ubiquitination Unit International Centre for Kinase Profiling (University of Dundee). Inhibition of recombinant human AMPK (α1β2γ1) by 10μM [L2Cu3]^6+ or [L2Zn3]^6+ was evaluated at five different ATP concentrations (0.5, 2, 20, 200 and 500 µM ATP). Substrate competition assays were performed using the ADP-Glo Kinase Assay (Promega) and recombinant human AMPK (α1β2γ1) (Promega) with concentrations of the provided AMPK substrate (SAMStide substrate, Promega) ranging from 1 to 15 mg/ml. Following pre-incubation of substrate with kinase for 5 min 10 µM [L2Cu3]^6+, [L2Zn3]^6+ or solvent control and 50 µM ATP was added to start the kinase reaction. For determination of the effects of AMP on AMPK inhibition by [L2Zn3]^6+, the ADP-Glo Kinase Assay (Promega) was performed in presence of varying of AMP (0, 80, 160 μM).

SMILES	increase of p53 levels (HCT116 p53+/+ [5]; HCT116, 5 µM, 40 h)	levels of p53 (ARPE-19 [6])	%AMPK Activity Remaining, Mean ([7]; Substrate 1 mg/ml)	%AMPK Activity Remaining, individual replicates ([7]; Substrate 1 mg/ml)	%AMPK Activity Remaining, Mean ([7]; Substrate 2.5 mg/ml)	%AMPK Activity Remaining, individual replicates ([7]; Substrate 2.5 mg/ml)	%AMPK Activity Remaining, Mean ([7]; Substrate 5 mg/ml)	%AMPK Activity Remaining, individual replicates ([7]; Substrate 5 mg/ml)	%AMPK Activity Remaining, Mean ([7]; Substrate 10 mg/ml)	%AMPK Activity Remaining, individual replicates ([7]; Substrate 10 mg/ml)	%AMPK Activity Remaining, Mean ([7]; Substrate 15 mg/ml)	%AMPK Activity Remaining, individual replicates ([7]; Substrate 15 mg/ml)	also measured
CC(=O)[O-].CC(=O)[O-].CC(=O)[O-].CC(=O)[O-].CC(=O)[O-].CC(=O)[O-].[Zn+2].[Zn+2].[Zn+2].c1ccc(-c2csc(NCCN(CCNc3nc(-c4ccccn4)cs3)CCNc3nc(-c4ccccn4)cs3)n2)nc1.c1ccc(-c2csc(NCCN(CCNc3nc(-c4ccccn4)cs3)CCNc3nc(-c4ccccn4)cs3)n2)nc1 [[L2Zn3]6+]	~ 2.7 fold	decreased	42.90%	57.40% and 31.37% and 37.80% and 44.50%	28.10%	30.60% and 40.90% and 18.40% and 22.50%	39.40%	31.50% (2×) and 56.70% (2×) and 25.70% (2×) and 43.60% (2×)	43.70%	40.20% and 42.80% and 35.20% and 56.50%	35.80%	33.30% and 26.60% and 47.50%	cellular uptake (TSQ fluorescent signal) (HCT116 p53+/+ [1]): increase in TSQ fluorescent signal; cellular uptake (TSQ fluorescent signal) (ARPE-19 [2]): increase in TSQ fluorescent signal; concentration from which dephosphorylation is evident [3]: ≥ 12.5 µM; decrease in Y527P relative to total Src levels (Src): ~ 30%; increase in Y416P levels (Src): ~ 5 fold; time from which decrease in phosphorylated T172 AMPKα and S108 AMPKβ1 is evident [4]: ≥ 2 h; cellular levels of T172P of AMPKα relative to total AMPKα (HCT116 p53+/+ [5]; HCT116, 5 µM, 40 h): increased; decrease in total levels of Tyr-phosphorylated proteins (HCT116 p53+/+ [5]; HCT116, 5 µM, 40 h, pan phospho-tyrosine antibody): ~ 10%; cellular phospho-Thr172 AMPKα levels (HCT116 p53+/+ [5]; HCT116 cancer cells, 10 µM, 4 h): decreased; p-Y10 LDH-A (ARPE-19 [6]; ARPE-19, 10µM, 4h, n=1): modestly decrease
[Cu+2].[Cu+2].[Cu+2].c1ccc(-c2csc(NCCN(CCNc3nc(-c4ccccn4)cs3)CCNc3nc(-c4ccccn4)cs3)n2)nc1.c1ccc(-c2csc(NCCN(CCNc3nc(-c4ccccn4)cs3)CCNc3nc(-c4ccccn4)cs3)n2)nc1 [[L2Cu3]6+]	~ 1.7 fold	decreased	34.60%	16.20% and 28.30% and 59.40%	20.90%	15.60% and 15.00% and 32.00%	17.00%	18.00% and 15.40% and 17.70%	25.40%	26.20% and 21.60% and 28.40%	17.20%	13.60% and 12.90% and 25.20%	–
